Laboratory results from patent publication US20030105115A1, “Novel pyridopyrimidines and uses thereof” (priority 2001, published 2003).

Test: Hydroxyapatite assay (hydroxyapatite adsorption chromatography, bone-targeting potential)
Assay type: physicochemical
Conditions: corrected retention K=(retention time-void time)/void on TSK-Gel HA 1000 HPLC column; linear gradient 10 mM to 500 mM sodium phosphate, 0.15 N NaCl, pH 6.8
Excerpt: Hydroxyapatite is the principal mineral component of bone. Hydroxyapatite adsorption chromatography is used as an assay to evaluate the bone-targeting potential of both individual bone-targeting moieties (“monomers”) and of pharmaceuticals incorporating bone-targeting groups.
The rentention time of the compound is expressed in terms of K=(retention time-void time)/void. This K value is corrected using two reference compounds to correct from inter-column and inter-system variation to obtain a K′ value.
Reference Compounds: K′ values were determined for known bone targeted compounds, the bisphosphonate, alendronate and tetracycline.

Compound: NCCCC(O)(P(=O)(O)O)P(=O)(O)O [Alendronate, alendronate]
- K′ value: 3.7
